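1) Cells in 96-well plates. 2) Compound, 48 h, 5 concentrations. 3) Linear interpolation between surrounding doses. 4) Unreached endpoint = highest concentration. The concentration for 50% growth inhibition is given as GI50.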 Calls of active or inactive are those of the source. Rule as the data show it: active = GI50 up to about 1.1 µM and inactive = higher.
Legend:
Assay in all cases: NCI tumour cell line growth inhibition, 48 h
DU-145 = tested on: DU-145
HOP-92 = tested on: HOP-92
OVCAR-4 = tested on: OVCAR-4
HCT-116 = tested on: HCT-116
SW-620 = tested on: SW-620
SK-MEL-2 = tested on: SK-MEL-2
TK-10 = tested on: TK-10
NCI-H522 = tested on: NCI-H522
NCI-H460 = tested on: NCI-H460
SR = tested on: SR
LOX IMVI = tested on: LOX IMVI
SF-295 = tested on: SF-295
HL-60 = tested on: HL-60
SF-268 = tested on: SF-268
HOP-62 = tested on: HOP-62
MCF7 = tested on: MCF7
NCI-H23 = tested on: NCI-H23
RPMI-8226 = tested on: RPMI-8226
SK-MEL-5 = tested on: SK-MEL-5
BT-549 = tested on: BT-549

Measured: GI50

CCCCN(CCCC)CCC(O)c1cc(-c2ccc(C(F)(F)F)cc2)nc(-c2ccc(C(F)(F)F)cc2)c1 (stereo not given)
inactive: DU-145 > 100 µM | HOP-92 > 100 µM | OVCAR-4 > 100 µM | HCT-116 > 100 µM | SW-620 > 100 µM | SK-MEL-2 > 100 µM | TK-10 > 100 µM | NCI-H522 > 100 µM | NCI-H460 > 100 µM | SR > 100 µM | LOX IMVI > 100 µM | SF-295 > 100 µM | HL-60 > 100 µM | SF-268 > 100 µM | HOP-62 > 100 µM | MCF7 > 100 µM | NCI-H23 > 100 µM | RPMI-8226 > 100 µM

Cc1c(C)c(S(=O)(=O)N(CCCCCN)OCCCN)c(C)c2c1OC(C)(C)CC2
inactive: DU-145 25.1 µM | SK-MEL-5 14.2 µM | HOP-92 18.3 µM | OVCAR-4 3.96 µM | HCT-116 5.98 µM | SW-620 7.8 µM | SK-MEL-2 4.75 µM | TK-10 16.2 µM | NCI-H522 6.28 µM | NCI-H460 6.35 µM | BT-549 13.5 µM | SR 1.61 µM | LOX IMVI 5.4 µM | SF-295 17.4 µM | HL-60 2.19 µM | SF-268 10 µM | HOP-62 8.05 µM | NCI-H23 14.6 µM | RPMI-8226 3.6 µM

Nc1cccc2cc(Cl)cnc12
inactive: DU-145 > 100 µM | SK-MEL-5 > 100 µM | HOP-92 > 100 µM | OVCAR-4 > 100 µM | HCT-116 > 100 µM | SW-620 > 100 µM | TK-10 > 100 µM | NCI-H522 > 100 µM | NCI-H460 > 100 µM | BT-549 > 100 µM | SR > 100 µM | LOX IMVI > 100 µM | SF-295 > 100 µM | HL-60 22.8 µM | SF-268 > 100 µM | HOP-62 > 100 µM | NCI-H23 > 100 µM | RPMI-8226 > 100 µM

O=c1oc2cccnc2n1CCN1CCN(c2ccc(Oc3ccccc3)cc2)CC1
inactive: DU-145 > 100 µM | SK-MEL-5 10.2 µM | HOP-92 57.3 µM | OVCAR-4 15.7 µM | HCT-116 33.6 µM | SW-620 > 100 µM | SK-MEL-2 > 100 µM | TK-10 61.8 µM | NCI-H522 31.6 µM | NCI-H460 77.8 µM | SR 8.71 µM | LOX IMVI > 100 µM | SF-295 43 µM | HL-60 8.04 µM | SF-268 > 100 µM | HOP-62 > 100 µM | MCF7 > 100 µM | NCI-H23 > 100 µM | RPMI-8226 8.47 µM

CS(=O)(=O)Nc1ccc(N2Cc3c[nH]c4ccc5nccc2c5c34)cc1
inactive: DU-145 18.3 µM | SK-MEL-5 14.7 µM | HOP-92 12.9 µM | OVCAR-4 14 µM | HCT-116 9.14 µM | SW-620 15 µM | SK-MEL-2 16.4 µM | TK-10 23 µM | NCI-H522 10.3 µM | NCI-H460 19.4 µM | BT-549 21.8 µM | LOX IMVI 12.2 µM | SF-295 27.7 µM | HL-60 29 µM | HOP-62 17.5 µM | MCF7 8.65 µM | NCI-H23 24.6 µM | RPMI-8226 20.3 µM

CC(C)(/N=N/C(C)(C)C1=NCCN1)C1=NCCN1
inactive: DU-145 > 100 µM | SK-MEL-5 > 100 µM | OVCAR-4 > 100 µM | HCT-116 > 100 µM | SW-620 > 100 µM | SK-MEL-2 > 100 µM | TK-10 > 56 µM | NCI-H460 > 100 µM | BT-549 > 100 µM | LOX IMVI > 66.1 µM | SF-295 > 100 µM | SF-268 > 100 µM | HOP-62 > 100 µM | MCF7 > 69.5 µM

COc1ccc2c(c1)OCC1Cc3cccc(OC)c3OC21 (stereo not given)
inactive: DU-145 > 100 µM | SK-MEL-5 17.7 µM | HOP-92 > 100 µM | HCT-116 45.1 µM | SW-620 60.3 µM | SK-MEL-2 51.3 µM | TK-10 40.3 µM | NCI-H522 55.6 µM | BT-549 26.9 µM | SR 59.7 µM | LOX IMVI 45.5 µM | SF-295 64.6 µM | SF-268 > 100 µM | HOP-62 > 100 µM | NCI-H23 58.3 µM | RPMI-8226 36.9 µM

COc1ccc(CNc2nc(NCc3ccc(OC)cc3)nc(NC(C)C)n2)cc1
inactive: DU-145 19.2 µM | SK-MEL-5 4.85 µM | HOP-92 3.37 µM | OVCAR-4 20.3 µM | HCT-116 3.18 µM | SW-620 4.22 µM | SK-MEL-2 6.5 µM | TK-10 17.9 µM | NCI-H522 3.03 µM | NCI-H460 3.66 µM | SR 3.84 µM | LOX IMVI 6.89 µM | SF-295 3.96 µM | HL-60 4.08 µM | SF-268 9.02 µM | HOP-62 6.56 µM | MCF7 1.77 µM | NCI-H23 5.21 µM | RPMI-8226 1.94 µM

NC1CC(=O)c2ccccc21 (stereo not given)
inactive: DU-145 > 100 µM | SK-MEL-5 > 100 µM | HOP-92 > 100 µM | OVCAR-4 > 100 µM | HCT-116 > 100 µM | SW-620 > 100 µM | SK-MEL-2 > 100 µM | TK-10 > 100 µM | NCI-H522 > 100 µM | BT-549 > 100 µM | LOX IMVI > 100 µM | SF-295 > 100 µM | SF-268 > 100 µM | HOP-62 > 100 µM | MCF7 > 100 µM | NCI-H23 > 100 µM | RPMI-8226 > 100 µM

Cc1c(-c2ccc(O)c(O)c2)oc(=O)c2c(O)cccc12
inactive: DU-145 14.4 µM | SK-MEL-5 10.4 µM | HOP-92 16.3 µM | OVCAR-4 11.7 µM | HCT-116 6.56 µM | SW-620 12.2 µM | SK-MEL-2 13.1 µM | TK-10 12.2 µM | NCI-H522 2.95 µM | NCI-H460 11.6 µM | BT-549 6.24 µM | SF-295 17.7 µM | HL-60 3.88 µM | SF-268 9.1 µM | HOP-62 10.7 µM | MCF7 6.68 µM | NCI-H23 10.3 µM | RPMI-8226 13.7 µM

C[C@@H](c1ccccc1)N1C[C@@H](c2ccc3c(c2)OCO3)[C@@H]2C(=O)CCC[C@@H]21
inactive: DU-145 > 100 µM | SK-MEL-5 36.8 µM | HOP-92 47.1 µM | OVCAR-4 43.8 µM | HCT-116 43.8 µM | SK-MEL-2 41 µM | TK-10 > 100 µM | NCI-H522 42.5 µM | NCI-H460 54.5 µM | SR 42.8 µM | LOX IMVI 69 µM | SF-295 79.3 µM | HL-60 34.1 µM | SF-268 96.8 µM | HOP-62 > 100 µM | MCF7 27.8 µM | NCI-H23 61.8 µM | RPMI-8226 38.1 µM

O=C(Nc1ccc(Br)cc1)c1c(-c2ccccc2)c2ccc(O)cc2oc1=O
inactive: DU-145 > 10 µM | SK-MEL-5 > 10 µM | HOP-92 > 10 µM | OVCAR-4 > 10 µM | SW-620 > 10 µM | SK-MEL-2 > 10 µM | TK-10 > 10 µM | NCI-H522 > 10 µM | NCI-H460 > 10 µM | SR > 10 µM | LOX IMVI > 10 µM | SF-295 > 10 µM | HL-60 > 10 µM | SF-268 > 10 µM | HOP-62 > 10 µM | MCF7 > 10 µM | NCI-H23 > 10 µM | RPMI-8226 > 10 µM

CCNCCNC(=O)c1ccc(Br)cc1
inactive: SK-MEL-5 > 100 µM | HOP-92 > 100 µM | OVCAR-4 > 100 µM | SW-620 > 100 µM | TK-10 > 100 µM | NCI-H460 > 100 µM | BT-549 > 100 µM | SR > 100 µM | LOX IMVI > 100 µM | HL-60 > 100 µM | SF-268 > 100 µM | MCF7 > 100 µM | NCI-H23 > 100 µM | RPMI-8226 > 100 µM

CC1CC(C)CC(NC2=NCCO2)C1 (stereo not given)
inactive: DU-145 > 100 µM | SK-MEL-5 > 100 µM | HOP-92 > 100 µM | OVCAR-4 > 100 µM | HCT-116 > 100 µM | SW-620 > 100 µM | SK-MEL-2 > 100 µM | TK-10 > 100 µM | NCI-H522 > 100 µM | NCI-H460 > 100 µM | SR > 100 µM | LOX IMVI > 100 µM | SF-295 > 100 µM | HL-60 > 100 µM | SF-268 > 100 µM | HOP-62 > 100 µM | MCF7 > 100 µM | NCI-H23 > 100 µM | RPMI-8226 > 100 µM

CC(C)(Oc1ccc(Cl)cc1)C(=O)N(C(=O)N1CCCCC1)c1ccccc1
inactive: DU-145 14.7 µM | SK-MEL-5 10.4 µM | HCT-116 5.32 µM | SW-620 12.9 µM | SK-MEL-2 13.1 µM | BT-549 15.4 µM | LOX IMVI 11.4 µM | HL-60 2.16 µM | SF-268 20.1 µM | MCF7 19.6 µM | NCI-H23 14.2 µM | RPMI-8226 7.55 µM

CCO[C@H]1C[C@@H](c2ccccc2)[C@]2(C)C[C@H](C(=O)OC)ON2O1
inactive: DU-145 > 100 µM | SK-MEL-5 > 100 µM | HOP-92 > 100 µM | OVCAR-4 > 100 µM | HCT-116 > 100 µM | SW-620 > 100 µM | SK-MEL-2 > 100 µM | TK-10 > 100 µM | NCI-H522 > 100 µM | BT-549 > 100 µM | LOX IMVI > 100 µM | SF-295 > 100 µM | HL-60 > 100 µM | SF-268 > 100 µM | HOP-62 > 100 µM | MCF7 > 100 µM | NCI-H23 > 100 µM | RPMI-8226 > 100 µM

From ChEMBL document CHEMBL1201862, “PubChem BioAssay data set” (2004)
